Assay results: PubChem BioAssay (NCI)
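Test compounds were applied to cells in 96-well plates for 48 hours at 5 doses. GI50 is the concentration that inhibits growth by half. TGI marks complete inhibition of growth.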 Where a SMILES comes first, the peptide text is derived from it. [ ]: non-standard residue; d: D form. The star is where a group is joined. Benzoyl(4-OMe) = COc1ccc(C(=O)*)cc1; 2Thi = N[CH](Cc1cccs1)C(=O)O

Tests used:
Experiment in all cases: DTP human tumour cell line panel, 48 h
BT-549 breast = tested on: BT-549 breast
NCI-H226 lung = tested on: NCI-H226 lung
NCI-H23 lung = tested on: NCI-H23 lung
UACC-257 melanoma = tested on: UACC-257 melanoma
ACHN renal = tested on: ACHN renal
CAKI-1 renal = tested on: CAKI-1 renal
EKVX NSCLC = tested on: EKVX NSCLC
HCT-15 colon = tested on: HCT-15 colon
HOP-62 NSCLC = tested on: HOP-62 NSCLC
HOP-92 NSCLC = tested on: HOP-92 NSCLC
LOX IMVI melanoma = tested on: LOX IMVI melanoma
MALME-3M melanoma = tested on: MALME-3M melanoma
MDA-MB-231 breast = tested on: MDA-MB-231 breast
NCI/ADR-RES ovarian = tested on: NCI/ADR-RES ovarian
OVCAR-4 ovarian = tested on: OVCAR-4 ovarian
RXF 393 renal = tested on: RXF 393 renal
SF-295 CNS = tested on: SF-295 CNS
SF-539 CNS = tested on: SF-539 CNS
SK-OV-3 ovarian = tested on: SK-OV-3 ovarian
SNB-19 CNS = tested on: SNB-19 CNS
SNB-75 CNS = tested on: SNB-75 CNS
TK-10 renal = tested on: TK-10 renal
U251 CNS = tested on: U251 CNS
786-0 renal = tested on: 786-0 renal
A498 renal = tested on: A498 renal
A549 NSCLC = tested on: A549 NSCLC
CCRF-CEM leukemia = tested on: CCRF-CEM leukemia
COLO 205 colon = tested on: COLO 205 colon
DU-145 prostate = tested on: DU-145 prostate
HCC-2998 colon = tested on: HCC-2998 colon
HCT-116 colon = tested on: HCT-116 colon
HS 578T breast = tested on: HS 578T breast
HT29 colon = tested on: HT29 colon
IGROV1 ovarian = tested on: IGROV1 ovarian
K-562 leukemia = tested on: K-562 leukemia
KM12 colon = tested on: KM12 colon
M14 melanoma = tested on: M14 melanoma
MCF7 breast = tested on: MCF7 breast
MDA-MB-435 = tested on: MDA-MB-435
MOLT-4 leukemia = tested on: MOLT-4 leukemia
NCI-H460 lung = tested on: NCI-H460 lung
NCI-H522 lung = tested on: NCI-H522 lung
OVCAR-3 ovarian = tested on: OVCAR-3 ovarian
OVCAR-5 ovarian = tested on: OVCAR-5 ovarian
OVCAR-8 ovarian = tested on: OVCAR-8 ovarian
PC-3 prostate = tested on: PC-3 prostate
RPMI-8226 leukemia = tested on: RPMI-8226 leukemia
SF-268 CNS = tested on: SF-268 CNS
SK-MEL-28 melanoma = tested on: SK-MEL-28 melanoma
SK-MEL-5 melanoma = tested on: SK-MEL-5 melanoma
SN12C renal = tested on: SN12C renal
SR leukemia = tested on: SR leukemia
SW-620 colon = tested on: SW-620 colon
UACC-62 melanoma = tested on: UACC-62 melanoma
UO-31 renal = tested on: UO-31 renal

## CCC(C)C(NC(=O)C(Cc1cccs1)NC(=O)C(CC(C)C)NC(=O)C(CC(C)C)NC(=O)C(CCCCN)NC(=O)C(CCCN=C(N)N)NC(=O)c1ccc(OC)cc1)C(=O)NC(CC(C)C)C(N)=O (stereo not given) ({Benzoyl(4-OMe)}-RKLL[2Thi]IL-NH2; configuration not given here)
BT-549 breast
  TGI: > 100 µM
NCI-H226 lung
  TGI: > 100 µM
NCI-H23 lung
  TGI: > 100 µM
UACC-257 melanoma
  TGI: > 100 µM

## COc1cc(-c2nc3ccc(C)cc3[nH]2)ccc1OCC(=O)N=Nc1c(O)[nH]c2ccc(Cl)cc12
ACHN renal
  GI50: 3.64 µM
  TGI: > 100 µM
BT-549 breast
  GI50: 2.97 µM
  TGI: > 100 µM
CAKI-1 renal
  GI50: 1.43 µM
  TGI: 2.93 µM
EKVX NSCLC
  GI50: 3.85 µM
  TGI: > 100 µM
HCT-15 colon
  GI50: 2.13 µM
  TGI: > 100 µM
HOP-62 NSCLC
  GI50: 2.31 µM
  TGI: 7.02 µM
HOP-92 NSCLC
  GI50: 1.91 µM
  TGI: 7.05 µM
LOX IMVI melanoma
  GI50: 0.289 µM
  TGI: 1.01 µM
MALME-3M melanoma
  GI50: 1.64 µM
  TGI: 3.14 µM
MDA-MB-231 breast
  GI50: 0.438 µM
  TGI: 1.67 µM
NCI-H23 lung
  GI50: 2.06 µM
  TGI: 6.18 µM
NCI/ADR-RES ovarian
  GI50: > 100 µM
  TGI: > 100 µM
OVCAR-4 ovarian
  GI50: 2.24 µM
  TGI: 4.83 µM
RXF 393 renal
  GI50: 1.59 µM
  TGI: 3.04 µM
SF-295 CNS
  GI50: 1.8 µM
  TGI: 3.36 µM
SF-539 CNS
  GI50: 1.63 µM
  TGI: 3.05 µM
SK-OV-3 ovarian
  GI50: 3.44 µM
  TGI: > 100 µM
SNB-19 CNS
  GI50: 1.91 µM
  TGI: 5.57 µM
SNB-75 CNS
  GI50: 1.43 µM
  TGI: 3.72 µM
TK-10 renal
  GI50: 3.48 µM
  TGI: 9.5 µM
U251 CNS
  GI50: 0.418 µM
  TGI: 1.66 µM

## O=C(CNc1cccc(Cl)c1)Nn1c(-c2ccccc2)nc2ccccc2c1=O
786-0 renal
  TGI: 7.24 µM
A498 renal
  TGI: 43.5 µM
A549 NSCLC
  TGI: 46.4 µM
ACHN renal
  TGI: 26.5 µM
BT-549 breast
  TGI: 3.95 µM
CCRF-CEM leukemia
  TGI: 8.73 µM
COLO 205 colon
  TGI: 20.2 µM
DU-145 prostate
  TGI: 44.9 µM
EKVX NSCLC
  TGI: 34.4 µM
HCC-2998 colon
  TGI: 23.9 µM
HCT-116 colon
  TGI: 4.07 µM
HOP-62 NSCLC
  TGI: 30.8 µM
HOP-92 NSCLC
  TGI: 7.45 µM
HS 578T breast
  TGI: 65 µM
HT29 colon
  TGI: 24.9 µM
IGROV1 ovarian
  TGI: 17.9 µM
K-562 leukemia
  TGI: 18.1 µM
KM12 colon
  TGI: 24.9 µM
LOX IMVI melanoma
  TGI: 2.74 µM
M14 melanoma
  TGI: 6.19 µM
MCF7 breast
  TGI: 4.32 µM
MDA-MB-231 breast
  TGI: 10.8 µM
MDA-MB-435
  TGI: 15.2 µM
MOLT-4 leukemia
  TGI: 8.62 µM
NCI-H226 lung
  TGI: 35.3 µM
NCI-H23 lung
  TGI: 8.11 µM
NCI-H460 lung
  TGI: 29.2 µM
NCI-H522 lung
  TGI: 2.98 µM
OVCAR-3 ovarian
  TGI: 21.1 µM
OVCAR-4 ovarian
  TGI: 19.3 µM
OVCAR-5 ovarian
  TGI: 32.8 µM
OVCAR-8 ovarian
  TGI: > 100 µM
PC-3 prostate
  TGI: 22.9 µM
RPMI-8226 leukemia
  TGI: > 100 µM
SF-268 CNS
  TGI: 22.9 µM
SF-295 CNS
  TGI: 28.5 µM
SF-539 CNS
  TGI: 13.6 µM
SK-MEL-28 melanoma
  TGI: 29.9 µM
SK-MEL-5 melanoma
  TGI: 2.88 µM
SK-OV-3 ovarian
  TGI: 23.7 µM
SN12C renal
  TGI: 13.6 µM
SNB-19 CNS
  TGI: 31.6 µM
SNB-75 CNS
  TGI: 13.8 µM
SR leukemia
  TGI: > 100 µM
SW-620 colon
  TGI: 7.37 µM
U251 CNS
  TGI: 3.41 µM
UACC-257 melanoma
  TGI: 42.2 µM
UACC-62 melanoma
  TGI: 7.83 µM
UO-31 renal
  TGI: 31 µM
